# Data from US20120329865A1, “MOLECULES RELATED hERG ION [sequence] AND THE USE THEREOF” (priority 2009, published 2012).
# “Also recorded” adds a separate entry of the source. Like-named read-outs stand apart in the source and are kept apart here.
# Experiments:
# [1] = biological target: T1, hERG ion channels (Homo sapiens, UniProt Q12809)
# Description: (§2) Label-free RWG biosensor cellular assays were developed to directly assaying the activation and its subsequent signaling of hERG channels without applying voltages to the cells. […] Generally, the disclosed methods to characterize modulators acting directly through hERG ion channel, or indirectly via hERG-associated signaling complexes are related to label-free biosensor cellular assays. Disclosed is the use of three types of cells: a cancerous cell line endogenously expressing hERG ion channels, a native cell line without endogenous hERG channels and its engineered cell line overexpressing hERG channels, for characterizing hERG modulators. Also disclosed is the use of mallotoxin or other hERG activator as a readout to further confirm the modes of action of hERG modulators.
# (§3) In a specific approach, any compound can be profiled in three different types of cells, HT29, HEK-hERG, and HEK-293 cells, in both agonism and antagonism modes. The human colon cancerous cell line HT-29 is known to endogenously express hERG channels. HEK293 is a native cell line without endogenously expressed hERG channels, while HEK-hERG is an engineered HEK293 cell having stably expressed hERG channels.
# [2] = biological target: T1, hERG ion channels; assay: DMR antagonism mode: modulation of the mallotoxin DMR signal in HT29 cells; settings: for effect on the mallotoxin DMR signal in HT29 cells (in words): antagonism assay; for score of modulation index, HT29 coordinate: score assigned from % modulation of mallotoxin DMR (10% = 1)
# [3] = biological target: T1, hERG ion channels; assay: Label-free RWG biosensor (Epic) DMR assay, agonism mode, HT29 cells endogenously expressing hERG; settings: 10 micromolar
# Description: (§4) Using the RWG biosensor Corning® Epic® system, all compounds were systematically characterized for their ability to modulate hERG ion channels in live cells. The Epic® system consists of a temperature-control unit, an optical detection unit, with an on-board liquid handling unit with robotics, or an external liquid accessory system with robotics. The detection unit is centered on integrated fiber optics, and enables kinetic measures of cellular responses with a time interval of ˜7 or 15 sec. The compound solutions were introduced by using either the on-board liquid handling unit, or the external liquid accessory system; both of which use conventional pippetting system.
# (§5) Epic® wavelength interrogation system (Corning Inc., Corning, N.Y.) was used for whole cell sensing. This system consists of a temperature-control unit, an optical detection unit, and an on-board liquid handling unit with robotics. The detection unit is centered on integrated fiber optics, and enables kinetic measures of cellular responses with a time interval of ˜15 sec.
# (§6) Cells were plated in 384-well Epic® cell culture treated plate (Corning Cat#5040) 16-20 hours before assay (15000 cells/well for HEK293 and HEK-hERG cells, 30000 cells/well for HT29 cells). For both HEK-hERG and its parental HEK293 cells, each well was coated with 10 μl 5 μg/ml fibronectin. One hour before assay, cells were washed twice on a BioTek ELx405 Select washer with Hank's Balanced Salt Solution (HBSS) containing 20 mM Hepes. Cells were incubated in 40 μl/well HBSS at 28° C. inside the Epic system for one hour. For each assay, a 2-min baseline was initiated, followed by addition of 10 μl compound solutions (5×) and the cell responses were recorded continuously for one hour.
# (§7) All studies were carried out at a controlled temperature (28° C.). At least two independent sets of experiments, each with at least three replicates, were performed. […] All dose-dependent responses were analyzed using non-linear regression method with the GraphPad Prism 5.
# as §3
# [4] = biological target: T1, hERG ion channels; assay: Label-free RWG biosensor (Epic) DMR assay, agonism mode, HEK-hERG cells stably expressing hERG; settings: 10 micromolar
# Description: as §4, §5, §6, §7, §3
# [5] = biological target: T1, hERG ion channels; assay: DMR antagonism mode: modulation of the mallotoxin DMR signal in HEK-hERG cells; settings: for effect on the mallotoxin DMR signal in HEK-hERG cells (in words): antagonism assay; for score of modulation index, HEK-hERG coordinate: score assigned from % modulation of mallotoxin DMR (10% = 1)
# [6] = tested on: MCF7; assay: Cell proliferation assay (CellTiter-Glo) in MCF7; format: cell-based; settings: 48 h exposure; data not shown
# Description: (§1) Proliferation was measured using the CellTiter-Glo Luminescent Cell Viability Assay (Technical Bulletin #288, Promega, Madison, Wis.). When added to cells, the assay reagent produces luminescence in the presence of ATP from viable cells. Cells were plated in 96-well Corning Costar TCT (tissue culture treated) plates at a density of 10,000 cells/well and incubated for 24 h. Test samples were solubilized in dimethyl sulfoxide (DMSO) by sonication, filter sterilized and diluted with media to the desired treatment concentration. Cells were treated with 100 μl control media, or test samples, and incubated for 48 h drug exposure duration. At the end of 48 h, plates were equilibrated at room temperature for 30 min, 100 μl of the assay reagent was added to each well and cell lysis was induced on an orbital shaker for 2 min. Plates were incubated at room temperature for 10 min to stabilize the luminescence signal and results were read on an Perkin Elmer Vector 3 Microplate Reader. All plates had control wells containing medium without cells to obtain a value for background luminescence. Data are expressed as for three replications.
# [7] = tested on: HT29; assay: Cell proliferation assay (CellTiter-Glo) in HT29; format: cell-based, human; settings: for cytotoxicity on cancer cell line HT29: 25 micromolar, in vitro culture; for cell apoptosis or alteration in cell proliferation rate, HT29: 48 h exposure
# Description: as §1
# [8] = biological target: T1, hERG ion channels; assay: Rb+ flux assay using HEK-hERG cells; settings: 5 mM KCl, modulators at 10 or 50 micromolar (FIG. 3)
# Description: Briefly, 50,000 cells per well were plated in 96-well tissue culture treated plates 20 hours before assay. In the next day, cells were incubated with complete cell culture medium containing 5 mM RbCl for 3 hours at 37° C. with 5% CO2. Then compounds (10×) diluted in HBSS were added into the cell culture medium and cells were incubated at 37° C. with 5% CO2 for another hour. Cells were washed twice with Rb^+ free cell culture medium and incubated with 180 μl/well of cell culture medium containing different concentration of KCl for exactly 10 minutes. The supernatant from each well was transferred to a new 96 well plate immediately. Cells were lysed with 180 μl/well 0.5% Triton100 in HBSS. The Rb^+ concentration of each sample was determined by ICR8000 (Aurora Biomed Inc.).
# [9] = biological target: T1, hERG ion channels; assay: Label-free biosensor hERG modulator classification from profiles in HT29, HEK-hERG and HEK293 cells plus mallotoxin modulation; settings: label-free biosensor cellular assays
# Description: as §2, §3
# [10] = biological target: hERG channel (Homo sapiens, UniProt Q12809); assay: Automated patch clamp recording using IonWorks, CHO-hERG cells; settings: 50 micromolar; tail current at -35 mV after +40 mV depolarization
# Description: CHO-K1 cells stably expressing hERG channel (CHO-hERG) were cultured in T175 flask till about 70% confluent. Cells were washed twice with PBS, then 2.5 ml 0.25% Trypsin/EDTA was mixed with 2.5 ml PBS and added to the T175 flask. Cells were incubated about 2 minutes with the diluted Trypsin/EDTA solution at 37° C., then were continuously incubated about 3 minutes at room temperature. 20 ml fresh medium were added to suspend the cells and transfer to a 50 ml tube. Cells were centrifuged down at 750 rpm for 5 minutes. The extra medium was removed and cells were resuspended in 6 ml External Buffer (137 mM NaCl, 4 mM KCl, 1.8 mM CaCl2, 1 mM MgCl2, 10 mM HEPES, 10 mM glucose, pH 7.4). Then cells were centrifuged again at 450 rpm for another 5 minutes. Finally cells were resuspended in 4 ml the External Buffer, cell number was counted using a hemacytometer. Cell suspension was diluted to 2.5×10^6 cells/ml with the External Buffer. 4 ml of the resuspended cells were added to the cell reservoir in IonWorks. The Internal solution used contains: 40 mM KCl, 100 mM K-Gluconate, 3.2 mM MgCl2, 2 mM CaCl2, 5 mM HEPES, pH 7.25 (adjusted with KOH). […]
# hERG currents were recorded on IonWorks Quattro (Molecular Devices). […] Tail currents were measured during an ensuing return to −35 mV. […]
# [11] = molecule 10 micromolar, mallotoxin 16 micromolar
# T1 sequence (Q12809 whole entry): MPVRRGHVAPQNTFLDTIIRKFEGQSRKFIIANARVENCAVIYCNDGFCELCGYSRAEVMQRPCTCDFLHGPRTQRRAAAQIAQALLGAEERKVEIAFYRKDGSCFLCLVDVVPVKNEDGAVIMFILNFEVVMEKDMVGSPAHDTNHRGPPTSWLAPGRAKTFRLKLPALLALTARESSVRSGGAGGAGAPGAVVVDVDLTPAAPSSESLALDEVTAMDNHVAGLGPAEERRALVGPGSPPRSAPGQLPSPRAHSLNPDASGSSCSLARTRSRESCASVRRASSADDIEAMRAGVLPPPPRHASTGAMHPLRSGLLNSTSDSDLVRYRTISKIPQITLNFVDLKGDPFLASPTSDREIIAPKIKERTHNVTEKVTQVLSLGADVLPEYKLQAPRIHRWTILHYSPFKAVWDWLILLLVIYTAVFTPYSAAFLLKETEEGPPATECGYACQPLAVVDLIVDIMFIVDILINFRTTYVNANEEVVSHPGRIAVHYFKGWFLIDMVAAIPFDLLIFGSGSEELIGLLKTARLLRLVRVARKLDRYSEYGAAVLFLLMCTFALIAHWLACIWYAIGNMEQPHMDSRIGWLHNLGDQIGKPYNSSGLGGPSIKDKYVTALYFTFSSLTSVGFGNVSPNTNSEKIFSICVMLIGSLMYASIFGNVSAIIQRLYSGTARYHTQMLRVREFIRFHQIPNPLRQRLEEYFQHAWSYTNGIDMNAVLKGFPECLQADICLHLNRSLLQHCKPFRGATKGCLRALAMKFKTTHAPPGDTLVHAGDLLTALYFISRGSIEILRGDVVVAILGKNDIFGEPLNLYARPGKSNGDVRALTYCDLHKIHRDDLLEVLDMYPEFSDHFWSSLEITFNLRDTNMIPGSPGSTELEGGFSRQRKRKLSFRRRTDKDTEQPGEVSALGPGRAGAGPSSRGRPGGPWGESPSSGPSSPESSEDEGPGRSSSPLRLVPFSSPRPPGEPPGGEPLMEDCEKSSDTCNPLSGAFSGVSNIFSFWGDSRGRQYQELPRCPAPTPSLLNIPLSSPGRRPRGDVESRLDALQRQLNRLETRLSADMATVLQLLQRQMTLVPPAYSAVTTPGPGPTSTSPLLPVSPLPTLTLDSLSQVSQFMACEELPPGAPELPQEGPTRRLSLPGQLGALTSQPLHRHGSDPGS
# Sequence of hERG channel (Q12809 whole entry): as above
compound,measurement,setting,value
"N#CC(C#N)=Cc1ccc([N+](=O)[O-])c(O)c1 [AG126, reference compound]",class of hERG modulator assigned,[1],hERG pathway activator
CC1=C(C#N)C(=C(C#N)C#N)OC1(C)C [A],class of hERG modulator assigned,[1],label-free biosensor hERG activator
CC1=C(C#N)C(=C(C#N)C#N)OC1(C)c1ccc(F)cc1 (stereo not drawn) [C],class of hERG modulator assigned,[1],label-free biosensor hERG activator
"O=C(O)CC1CCC(c2ccc(-c3cc(C(F)(F)F)[nH]n3)cc2)CC1 (stereo not drawn) [Compound A-935142, reference compound]",class of hERG modulator assigned,[1],label-free biosensor hERG activators
"CC1=C(C#N)C(=C(C#N)C#N)OC1(c1ccccc1)C(F)(F)F (stereo not drawn) [Compound B, 2-dicyanomethylene-3-cyano-4-methyl-5-phenyl-5-perfluoromethyl-2,5-dihydrofuran]",effect on the mallotoxin DMR signal in HT29 cells (in words),[2]; [11],desensitization
same,DMR signal in HT29 cells,[3],robust DMR signals
same,DMR signal in HEK-hERG cells,[4],robust DMR signals
same,class of hERG modulator assigned,[1],potent label-free biosensor hERG activator
same,effect on the mallotoxin DMR signal in HEK-hERG cells (in words),[5]; [11],desensitization
"CC1=C(C#N)C(=C(C#N)C#N)OC1(C)c1ccc(F)cc1F (stereo not drawn) [Compound D, 2-dicyanomethylene-3-cyano-4,5-dimethyl-5-[2′,4′-difluorophenyl]-2,5-dihydrofuran]",effect on the mallotoxin DMR signal in HT29 cells (in words),[2]; [11],attenuated signal
same,DMR signal in HT29 cells,[3],robust DMR signals
same,DMR signal in HEK-hERG cells,[4],robust DMR signals
same,"cell apoptosis or alteration in cell proliferation rate, MCF7",[6],did not lead to cell apoptosis or any alteration in cell proliferation rate
same,cytotoxicity on cancer cell line HT29,[7],did not exhibit cytotoxicity
same,"cell apoptosis or alteration in cell proliferation rate, HT29",[7],did not lead to cell apoptosis or any alteration in cell proliferation rate
same,Rb+ flux signal,[8],small but detectable increase
same,effect on the mallotoxin DMR signal in HEK-hERG cells (in words),[5]; [11],attenuated signal
"CCCCc1ccc(C2(C)OC(=C(C#N)C#N)C(C#N)=C2C)cc1 (stereo not drawn) [Compound E, 2-dicyanomethylene-3-cyano-4,5-dimethyl-5-[4′-n-butylphenyl]-2,5-dihydrofuran]",effect on the mallotoxin DMR signal in HT29 cells (in words),[2]; [11],attenuated signal
same,DMR signal in HT29 cells,[3],robust DMR signals
same,DMR signal in HEK-hERG cells,[4],robust DMR signals
same,"cell apoptosis or alteration in cell proliferation rate, MCF7",[6],did not lead to cell apoptosis or any alteration in cell proliferation rate
same,cytotoxicity on cancer cell line HT29,[7],did not exhibit cytotoxicity
same,"cell apoptosis or alteration in cell proliferation rate, HT29",[7],did not lead to cell apoptosis or any alteration in cell proliferation rate
same,class of hERG modulator assigned,[1],hERG activators
same,Rb+ flux signal,[8],small but detectable increase
same,effect on the mallotoxin DMR signal in HEK-hERG cells (in words),[5]; [11],attenuated signal
"CC1=C(C#N)C(=C(C#N)C#N)OC1(C)c1ccc(Cl)c(Cl)c1 (stereo not drawn) [Compound F, 2-dicyanomethylene-3-cyano-4,5-dimethyl-5-[3′,4′-dichlorophenyl]-2,5-dihydrofuran]",class of hERG modulator assigned,[1],label-free biosensor hERG activator
"CC1=C(C#N)C(=C(C#N)C#N)OC1(C)c1ccc(Cl)cc1Cl (stereo not drawn) [Compound G, 2-dicyanomethylene-3-cyano-4,5-dimethyl-5-[2′,4′-dichlorophenyl]-2,5-dihydrofuran]",melting point,,239 to 240 °C
CC1=C/C(=C/C=C/C2=C(C#N)C(=C(C#N)C#N)OC2(C)c2ccc(C3CCCCC3)cc2)CC(C)(C)C1 (stereo not drawn) [Compound I],class of hERG modulator assigned,[1],label-free biosensor hERG activator
"CC1=C(C#N)C(=C(C#N)C#N)OC12CCCCC2 [Compound U, 2-dicyanomethylene-3-cyano-4-methyl-5-spiro-cyclohexyl-2,5-dihydrofuran]","cell apoptosis or alteration in cell proliferation rate, MCF7",[6],did not lead to cell apoptosis or any alteration in cell proliferation rate
same,cytotoxicity on cancer cell line HT29,[7],did not exhibit cytotoxicity
same,"cell apoptosis or alteration in cell proliferation rate, HT29",[7],did not lead to cell apoptosis or any alteration in cell proliferation rate
same,class of hERG modulator assigned,[1],label-free biosensor hERG activator
CC1=C(C#N)C(=C(C#N)C#N)OC1(C)c1ccc(Cl)c(Cl)c1Cl (stereo not drawn) [H],class of hERG modulator assigned,[1],label-free biosensor hERG activator
CN(CCO)c1ccc(/C=C/C2=C(C#N)C(=C(C#N)C#N)OC2(C)c2c(F)c(F)c(F)c(F)c2F)cc1 (stereo not drawn) [J],class of hERG modulator assigned,[1],label-free biosensor hERG activator
O=C(Nc1cc(C(F)(F)F)ccc1O)Nc1cc(C(F)(F)F)ccc1O [NS1643],class of hERG modulator assigned,[9],label-free biosensor hERG activators
"O=C(O)c1ccccc1Nc1ccc(CCc2ccc(Cl)c(Cl)c2)cc1 [PD-118057, reference compound]",class of hERG modulator assigned,[1],label-free biosensor hERG activators
"O=C(O)c1cccnc1Nc1ccc2c(c1)CN(c1ccc(Cl)c(Cl)c1)C2 [PD-307243, reference compound]",class of hERG modulator assigned,[1],label-free biosensor hERG activators
"COc1ccc2nccc(C(=O)CC[C@@H]3CCN(CC#Cc4cc(F)cc(F)c4F)C[C@@H]3C(=O)O)c2c1 [RPR260243, reference compound]",class of hERG modulator assigned,[1],label-free biosensor hERG activators
"O=C(O)c1cc(-c2ccc(F)cc2F)ccc1O [diflunisal, reference compound]","score of modulation index, HT29 coordinate",[2],−9
same,"score of modulation index, HEK-hERG coordinate",[5],1
CN(CCOc1ccc(NS(C)(=O)=O)cc1)CCc1ccc(NS(C)(=O)=O)cc1 [dofetilide],Rb+ flux signal,[8],suppression
O=C(O)c1ccccc1Nc1cccc(C(F)(F)F)c1 [flufenamic acid],modulation index against the mallotoxin DMR signal in HT29,[2]; [11],−90%
same,effect on the mallotoxin DMR signal in HT29 cells (in words),[2]; [11],selectively attenuated
same,"score of modulation index, HT29 coordinate",[2],−9
same,DMR signal in HT29 cells,[3],robust DMR signals
same,DMR signal in HEK-hERG cells,[4],robust DMR signals
same,class of hERG modulator assigned,[9],"hERG pathway activator, a label free biosensor hERG activator; also recorded: weak hERG activator"
same,Rb+ flux signal,[8],weak hERG ion flux activator; also recorded: small and dose-dependent increase
same,modulation index against the mallotoxin DMR signal in HEK-hERG,[5]; [11],~+12%
same,"score of modulation index, HEK-hERG coordinate",[5],1
same,effect on hERG current (tail current),[10],weak hERG current activator; also recorded: potentiated
CC(=O)c1c(O)c(C)c(O)c(Cc2c(O)c3c(c(C(=O)/C=C/c4ccccc4)c2O)OC(C)(C)C=C3)c1O [mallotoxin],class of hERG modulator assigned,[9],label free biosensor hERG activator
same,Rb+ flux signal,[8],significant increase
